We go through one molecule from paper PMC4450062, “A Membrane-bound eIF2 Alpha Kinase Located in Endosomes Is Regulated by Heme and Controls Differentiation and ROS Levels in Trypanosoma cruzi” (PLoS Pathogens, 2015).

Each structure is given as a SMILES string.

The experiment has as its target T1, GST-TcK2 (kinase domain of TcK2, T. cruzi K2) (Trypanosoma cruzi, UniProt Q4E5B6).
T1 construct: gene Tc00.1047053506559.129; N-terminal GST fusion (pGEX5X-1), GST kept, 68 kDa; E. coli BL21; transmembrane and N-terminal domains absent
T1 sequence (Q4E5B6 638-984): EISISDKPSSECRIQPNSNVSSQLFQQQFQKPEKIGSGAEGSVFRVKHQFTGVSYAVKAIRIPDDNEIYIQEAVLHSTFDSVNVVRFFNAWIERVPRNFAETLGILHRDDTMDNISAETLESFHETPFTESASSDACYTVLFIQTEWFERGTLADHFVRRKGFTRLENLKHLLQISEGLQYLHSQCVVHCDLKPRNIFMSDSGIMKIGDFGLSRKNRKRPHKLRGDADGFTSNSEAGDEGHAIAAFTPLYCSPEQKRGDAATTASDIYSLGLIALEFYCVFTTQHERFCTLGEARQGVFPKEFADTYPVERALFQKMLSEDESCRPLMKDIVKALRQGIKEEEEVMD
As to the kind of experiment: Soret absorbance titration at […] nm. Format: binding. The following applies: 0.1 M Tris-HCl pH 7.4, 50 mM NaCl, 25 °C, 30 min incubation; 5 μg/ml protein; GST alone shows no Soret band; read-out: Kd^app.

Take `C=CC1=C(C)C2=Cc3c(C=C)c(C)c4[n]3[Fe]([Cl])[n]3c(c(C)c(CCC(=O)O)c3=CC3=NC(=C4)C(C)=C3CCC(=O)O)=CC1=N2` [hemin]: the Kd is 2.8 ± 0.6 µM.
